Test results reported in PMC4852132 (Biochemistry, 2016).
Like-named read-outs stand apart in the source and are kept apart here. Each block holds one compound with its values, some of them ahead of it.

What was measured:
E1p-h [1] = target: T1, E1p-h (Homo sapiens, UniProt P08559+P11177); details: read-out: Ki,AcPhi; cited from earlier work
T1 sequence (P08559 30-390): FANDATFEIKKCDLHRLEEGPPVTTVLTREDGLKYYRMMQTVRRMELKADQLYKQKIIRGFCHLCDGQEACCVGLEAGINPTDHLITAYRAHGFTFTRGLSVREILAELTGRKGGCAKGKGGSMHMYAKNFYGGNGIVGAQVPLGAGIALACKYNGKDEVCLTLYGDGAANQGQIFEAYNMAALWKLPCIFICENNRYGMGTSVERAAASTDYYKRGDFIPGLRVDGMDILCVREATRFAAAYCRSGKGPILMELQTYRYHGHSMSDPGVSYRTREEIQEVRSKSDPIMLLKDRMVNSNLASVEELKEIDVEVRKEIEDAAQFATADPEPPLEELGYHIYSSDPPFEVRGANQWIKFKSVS
T1 sequence (P11177 31-359): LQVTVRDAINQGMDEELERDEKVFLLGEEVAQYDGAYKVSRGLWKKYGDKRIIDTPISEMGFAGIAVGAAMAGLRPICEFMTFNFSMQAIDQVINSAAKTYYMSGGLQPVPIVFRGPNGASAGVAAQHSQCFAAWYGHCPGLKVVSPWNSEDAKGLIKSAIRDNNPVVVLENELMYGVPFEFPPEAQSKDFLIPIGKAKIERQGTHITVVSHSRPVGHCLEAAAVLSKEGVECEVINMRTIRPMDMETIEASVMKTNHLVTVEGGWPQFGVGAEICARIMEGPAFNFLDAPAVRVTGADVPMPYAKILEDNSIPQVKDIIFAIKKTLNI

E1p-h [2] = target: T1, E1p-h; test: CD titration of E1p-h by acetylphosphinate; type: binding; details: read-out: Kd,AcPhi
E1p-ec [3] = target: T2, E1p-ec (Escherichia coli, UniProt P0AFG8); details: read-out: Ki,AcPhi, reversible tight-binding inhibitor; cited from earlier work
T2 sequence (P0AFG8 2-887 limits assumed): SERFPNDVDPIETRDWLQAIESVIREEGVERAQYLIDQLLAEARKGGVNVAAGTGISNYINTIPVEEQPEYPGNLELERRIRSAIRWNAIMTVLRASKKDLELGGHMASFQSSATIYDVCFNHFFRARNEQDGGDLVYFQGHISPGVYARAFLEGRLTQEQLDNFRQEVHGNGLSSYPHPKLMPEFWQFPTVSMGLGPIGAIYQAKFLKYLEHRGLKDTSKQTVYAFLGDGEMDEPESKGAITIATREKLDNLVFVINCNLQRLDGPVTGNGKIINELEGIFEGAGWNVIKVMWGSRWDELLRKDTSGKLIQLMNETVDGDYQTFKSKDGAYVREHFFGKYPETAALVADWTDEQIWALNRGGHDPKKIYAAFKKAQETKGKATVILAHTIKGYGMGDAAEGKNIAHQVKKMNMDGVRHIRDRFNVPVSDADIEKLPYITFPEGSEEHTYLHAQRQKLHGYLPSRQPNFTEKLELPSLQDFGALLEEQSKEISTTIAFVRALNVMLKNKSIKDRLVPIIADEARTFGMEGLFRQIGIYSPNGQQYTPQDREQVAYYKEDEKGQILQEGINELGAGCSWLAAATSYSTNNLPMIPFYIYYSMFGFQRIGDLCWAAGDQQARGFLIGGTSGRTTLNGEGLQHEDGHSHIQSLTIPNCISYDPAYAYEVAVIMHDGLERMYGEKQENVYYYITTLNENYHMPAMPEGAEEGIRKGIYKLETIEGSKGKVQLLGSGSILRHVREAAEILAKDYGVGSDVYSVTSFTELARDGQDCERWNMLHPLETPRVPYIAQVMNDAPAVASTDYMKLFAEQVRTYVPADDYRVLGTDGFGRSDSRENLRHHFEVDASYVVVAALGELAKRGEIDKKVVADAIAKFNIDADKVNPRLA

E1p-ec [4] = target: T2, E1p-ec; details: read-out: Kd,AcPhi; E1p-ec with ThDP; cited from earlier work
E1p-ec [5] = target: T2, E1p-ec; test: CD titration of E1p-ec by acetylphosphinate; type: binding; details: for Kd: read-out: Kd,AcPhi
DXPS = DXPS (Escherichia coli, UniProt P77488); test: CD titration of apo-DXPS with ThTTDP; type: binding; details: for Kd: read-out: Kd,ThTTDP, CD titration, CD331
Sequence of DXPS (P77488 whole entry): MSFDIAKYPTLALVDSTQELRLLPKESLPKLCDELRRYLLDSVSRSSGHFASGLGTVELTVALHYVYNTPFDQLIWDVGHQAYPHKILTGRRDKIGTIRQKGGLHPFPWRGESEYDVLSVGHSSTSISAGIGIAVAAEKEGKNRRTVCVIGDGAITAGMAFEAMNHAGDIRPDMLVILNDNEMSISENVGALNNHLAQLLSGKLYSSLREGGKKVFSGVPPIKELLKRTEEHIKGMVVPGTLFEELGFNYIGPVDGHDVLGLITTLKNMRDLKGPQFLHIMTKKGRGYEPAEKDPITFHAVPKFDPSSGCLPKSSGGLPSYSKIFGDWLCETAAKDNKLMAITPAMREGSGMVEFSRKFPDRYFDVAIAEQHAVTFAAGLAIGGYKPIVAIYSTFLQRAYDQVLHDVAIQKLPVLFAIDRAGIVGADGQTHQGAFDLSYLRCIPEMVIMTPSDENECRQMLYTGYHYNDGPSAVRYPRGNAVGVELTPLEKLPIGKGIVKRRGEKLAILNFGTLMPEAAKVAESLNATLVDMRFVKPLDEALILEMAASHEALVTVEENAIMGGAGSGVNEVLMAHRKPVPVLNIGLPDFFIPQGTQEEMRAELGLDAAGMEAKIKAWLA

[6] = UV spectroscopic determination of the pKa for N1-protonated bacimethrin; type: physicochemical; details: aqueous triple buffer
[7] = in the presence of 10 µM MeOThDP

SMILES: CC(=O)[PH](=O)[O-].[Na+] [AcPhi, acetylphosphinic acid sodium salt]
- Ki (E1p-h [1]): 14 nM
- Kd (E1p-h [2]; E1p-h complexed with MeOThDP): 1360 nM
- Kd (E1p-h [2]; E1p-h complexed with ThDP, unpublished data): 43 nM
- Ki (E1p-ec [3]): 760 nM
- Kd (E1p-ec [4]): 62 nM
- [AcPhi]/[E1p-ec] molar ratio at maximal CD intensity (E1p-ec [5]; E1p-ec complexed with ThDP): 1/1
- Kd (E1p-ec [5]; E1p-ec complexed with 0.20 mM MeOThDP, CD303): 1880 nM
- Kd (E1p-ec [5]; E1p-ec complexed with 0.20 mM ThDP, CD319): 36 nM

SMILES: Cc1ncc(Cn2c(C)c(CCOP(=O)(O)OP(=O)(O)O)sc2=S)c(N)n1 [ThTTDP, Thiamin 2-thiothiazolone diphosphate]
- [ThTTDP]/[DXPS active centers] molar ratio at saturation (DXPS; [7]): 2.6
- [ThTTDP]/[DXPS active centers] molar ratio at saturation (DXPS; no MeOThDP): 1.26
- Kd (DXPS; [7]): 600 ± 140 nM
- Kd (DXPS; no MeOThDP): 390 ± 100 nM

- pKa [6]: 5.32 ± 0.03
SMILES: COc1ncc(CO)c(N)n1 [bacimethrin, 4-amino-5-hydroxymethyl-2-methoxypyrimidine]
